Among the data in the Deep4Chem optical property database are absorption maximum values, retold here.

This series can be described thus: solvent given as SMILES.

For `CC(C)(C)c1cc2ccc3cc(C(C)(C)C)cc4c3c2c(c1)c(=O)n1c4nc2c3ccccc3c3ccccc3c21`, the absorption maximum turned out to be 354 nm (in C1CCOC1); 365 nm (in CC#N); 365 nm (in CC(C)=O); 367 nm (in CCCCCC); 366 nm (in CCO); 366 nm (in CCOC(C)=O). Besides, the absorption maximum is, setting by setting: (in CO) 362 nm; (in CS(C)=O) 368 nm; (in Cc1ccc(C)cc1) 368 nm; (in ClC(Cl)(Cl)Cl) 369 nm; (in ClC(Cl)Cl) 368 nm; (in c1ccccc1) 369 nm.

Regarding `CC(C)(C)c1ccc(-c2nc3c4ccc(-c5ccccc5)cc4c4cc(-c5ccccc5)ccc4c3n2-c2ccc(C(C)(C)C)cc2)cc1`, the absorption maximum runs as follows: (in C1CCOC1) 331 nm; (in C1COCCO1) 333 nm; (in CC#N) 329 nm; (in CCCCCC) 331 nm; (in CCCCOCCCC) 331 nm; (in CCN(CC)CC) 332 nm. For the same compound, the absorption maximum reads like this: (in CCOC(C)=O) 329 nm; (in CCOCC) 330 nm; (in CN(C)C=O) 331 nm; (in Cc1ccccc1) 333 nm; (in ClC=C(Cl)Cl) 332 nm; (in ClCCl) 330 nm.

The compound `FC(F)(F)c1ccc(-c2nnc(-c3cc(-c4nnc(-c5ccc(C(F)(F)F)cc5)o4)c(-n4c5ccccc5c5ccccc54)cc3-n3c4ccccc4c4ccccc43)o2)cc1` displayed an absorption maximum (in Cc1ccccc1) of 376 nm.

Consider `F[B-]1(F)N2C=CN=CC2=[N+]2[N+]1=Cc1c(-c3ccccc3)cc(-c3cccs3)n1[B-]2(F)F`, for which the absorption maximum (in ClCCl) turned out to be 533 nm.

Regarding `Cc1c(COC(=O)c2ccc(I)cc2)n2c(OCC(=O)c3ccc(I)cc3)c(C)c(=O)n2c1=O`, the absorption maximum (in CCO) is reported as 387 nm.

Regarding `COC(=O)C[C@H](Cc1c[nH]c2ccccc12)NC(=O)[C@H](CC(=O)N[C@@H](CC1=CCc2ccccc21)C(=O)OC)NC(=O)OC(C)(C)C`, the absorption maximum (in CC#N) was 280 nm, the absorption maximum (in CCOC(C)=O) was 280 nm and the absorption maximum (in CO) came to 280 nm.

Consider `CCCCCCC(CCCCCC)N1C(=O)c2cccc3c(-c4cc(OC)c(OC)c(OC)c4)ccc(c23)C1=O`, for which the absorption maximum is, setting by setting: (in CCCCCC) 354.8 nm; (in CCCCCCCCCCCCCC) 357 nm; (in CCCCCCCCCCCO) 362.6 nm; (in CCCCO) 361.4 nm; (in CN(C)C=O) 365.6 nm; (in Cc1ccccc1) 360.8 nm. This compound yielded an absorption maximum (in ClC(Cl)Cl) of 362.2 nm.

`O=c1c2cc(F)c(O)cc2n(Cc2ccccc2)c2cc(O)c(F)cc12` registered an absorption maximum (in CCO) of 381 nm.

Where the note is “in C1CCCCC1”, `c1ccc(-c2cc3cccc4cc(-c5ccccc5)c5cc(-c6cc7[b-]8c(c6)c(-c6ccccc6)cc6cccc(cc7-c7ccccc7)[n+]86)cc2[b-]5[n+]34)cc1` displayed an absorption maximum of 444 nm.

In turn, `N#C/C(=C\c1cn(-c2ccccc2)nc1-c1ccc([N+](=O)[O-])cc1)c1nc2ccccc2s1` came in with an absorption maximum (in C1CCOC1) of 378 nm; an absorption maximum (in C1COCCO1) of 379 nm; an absorption maximum (in CCOC(C)=O) of 375 nm; an absorption maximum (in CN(C)C=O) of 376 nm; an absorption maximum (in CS(C)=O) of 375 nm; an absorption maximum (in Cc1ccccc1) of 383 nm. Also, the absorption maximum (in ClC(Cl)Cl) came out at 382 nm.

`N#Cc1c(N2CCCCC2)cc(-c2ccccc2)c2c1-c1ccccc1C2`: for the setting “in C1CCOC1”, the absorption maximum turned out to be 360 nm.

For the compound `C(=C\c1ccc(-c2cccc3ccccc23)s1)/c1cccs1`, the absorption maximum (in ClCCl) worked out at 370 nm.

The compound `COc1cc(C)c2c(c1C)OC(=O)c1c(C)c(Cl)c(O)c(Cl)c1O2` showed an absorption maximum (in ClC(Cl)Cl) of 342 nm.

For the compound `COc1ccc(-c2c3cc4ccccc4cc3c(-c3ccc(OC)cc3)c3cc4ccccc4cc23)cc1`, where the note is “in ClCCl”, the absorption maximum is on record as 602 nm.

Where the note is “in C1CCOC1”, `c1ccc(-c2cc3ccccc3p2-c2ccccc2)cc1` (configuration not stated) gave an absorption maximum of 321 nm.

For the compound `Cc1cccn2c1cc1c3ccccc3nc(-c3cccs3)c12`, for the setting “in CS(C)=O”, the absorption maximum came to 398 nm.

For the setting “in C1COCCO1”, `c1ccc(-c2ccc(-c3ccc(-c4cc(-c5ccc(-c6ccc(-c7ccccc7)cc6)cc5)cc(-c5ccc(-c6ccc(-c7ccccc7)cc6)cc5)c4)cc3)cc2)cc1` returned an absorption maximum of 306.5 nm.

Regarding `COc1cc(OC)cc(C2=C3C(C)=C(I)C(/C=C/c4c[nH]c5ccc([N+](=O)[O-])cc45)=[N+]3[B-](F)(F)n3c(/C=C/c4c[nH]c5ccc([N+](=O)[O-])cc45)c(I)c(C)c32)c1`, the absorption maximum was found to be 695 nm (in C1CCOC1), 712 nm (in CS(C)=O) and 690 nm (in ClCCl).

For `CC1=C(Br)C(/C=C/c2ccncc2)=[N+]2C1=C(c1ccccc1)c1c(C)c(Br)c(/C=C/c3ccncc3)n1[B-]2(F)F`, where the note is “in ClC(Cl)Cl”, the absorption maximum stood at 620 nm.

Turning to `CC(C)(C)c1ccc(N(c2ccc(C(C)(C)C)cc2)c2cc(N(c3ccc(C(C)(C)C)cc3)c3ccc(C(C)(C)C)cc3)c3ccc4cc(C(C)(C)C)cc5ccc2c3c54)cc1`, the absorption maximum (in ClCCl) worked out at 425 nm.

Consider `FC(F)(F)c1ccc(-n2c(-c3ccc(N(c4ccc(-c5ccc(N(c6ccc(-c7nc8c9ccccc9c9ccccc9c8n7-c7ccc(C(F)(F)F)cc7)cc6)c6ccc(-c7nc8c9ccccc9c9ccccc9c8n7-c7ccc(C(F)(F)F)cc7)cc6)cc5)cc4)c4ccc(-c5nc6c7ccccc7c7ccccc7c6n5-c5ccc(C(F)(F)F)cc5)cc4)cc3)nc3c4ccccc4c4ccccc4c32)cc1`, for which the absorption maximum (in ClCCl) turned out to be 376 nm.

`c1ccc2c(c1)-c1ccccc1C21c2ccccc2-c2ccncc21` returned an absorption maximum (in CC1CCCO1) of 307 nm.

In the case of `CC1=[N+]2C(=C(c3ccc(C#N)cc3)c3ccc(C)n3[B-]2(F)F)C=C1`, the absorption maximum runs as follows: (in C1CCCCC1) 517 nm; (in C1CCOC1) 516 nm; (in CC#N) 512 nm; (in CCOC(C)=O) 513 nm; (in CO) 513 nm; (in Cc1ccccc1) 519 nm. This compound also had an absorption maximum (in ClC(Cl)Cl) of 519 nm.

With `COc1cc2c(cc1/C=C/C1=CC(=C(C#N)C#N)CC(C)(C)C1)c1ccccc1n2C`, the absorption maximum reads like this: (in C1CCOC1) 475 nm; (in CC#N) 477 nm; (in CCO) 479 nm; (in CCOC(C)=O) 462 nm; (in CN(C)C=O) 484 nm; (in CS(C)=O) 489 nm. For the same compound, the absorption maximum by setting is: (in Cc1ccccc1) 468 nm; (in ClC(Cl)Cl) 485 nm; (in ClCCl) 478 nm.

With `C(#Cc1nccnc1C#Cc1ccccc1)c1ccccc1`, where the note is “in CC#N”, the absorption maximum is on record as 315 nm.

Turning to `CCCC1(CCC)c2cc(-c3ccccc3)ccc2-c2ccc(-c3ccc4c(c3)C(CCC)(CCC)c3cc(-c5ccccc5)ccc3-4)cc21`, the absorption maximum (in C1CCCCC1) turned out to be 346 nm.

In the case of `Cc1cc2cc(N3c4ccccc4Oc4ccccc43)ccc2c(=O)o1`, the absorption maximum (in Cc1ccccc1) turned out to be 395 nm.

Compound `CC(C)[Si](C#Cc1c2nsnc2c(C#C[Si](C(C)C)(C(C)C)C(C)C)c2nc3c(ccc4ccccc43)nc12)(C(C)C)C(C)C` showed an absorption maximum (in CCCCCC) of 607 nm.

As to `CN(C)c1ccc(/C=C/c2cnccn2)cc1`, the absorption maximum (in ClCCl) is 389 nm.

Regarding `C[SiH]1c2ccccc2-c2cc3c(cc21)-c1ccccc1[SiH]3C` (configuration not stated), under “in ClCCl”, the absorption maximum is 324 nm.

For the compound `CN(C)c1ccc(N2c3sc4ccccc4c3Sc3c2sc2ccccc32)cc1`, the absorption maximum (in ClCCl) is on record as 430 nm.

The compound `Cn1cc(-c2nc3ccccc3nc2C#Cc2ccc(C#N)cc2)c2ccccc21` showed an absorption maximum (in ClCCl) of 418 nm.

`CCn1c2ccccc2c2cc(-c3cc(-c4ccc5c(c4)c4ccccc4n5CC)nc(N4CCCCC4)n3)ccc21`: the absorption maximum is, setting by setting: (in C1CCOC1) 367 nm; (in CCOC(C)=O) 368 nm; (in CN(C)C=O) 370 nm; (in Cc1ccccc1) 369 nm; (in ClCCl) 371 nm.

For the setting “in ClCCl”, `CCOC(=O)c1c(-c2cc3ccccc3oc2=O)nn(-c2cccc(C)c2)c1C(=O)OCC` showed an absorption maximum of 321 nm.

Where the note is “in C1CCOC1”, `Cc1ccsc1-c1cc2c3cc(-c4sccc4C)c4nc(C(F)(F)C(F)(F)C(F)(F)F)nc5c(-c6sccc6C)cc(c6cc(-c7sccc7C)c7nc(C(F)(F)C(F)(F)C(F)(F)F)nc1c7c26)c3c45` showed an absorption maximum of 532 nm.

Compound `O=C1CCCC2=C1C(c1ccccc1)c1c(c3ccccc3oc1=O)N2` (configuration not stated) returned an absorption maximum (in CS(C)=O) of 368 nm.

As for `CN(C)c1ccc(-c2ccc(-c3ccc(N(C)C)cc3)c3nc(-c4ccccc4)c(-c4ccccc4)nc23)cc1`, the absorption maximum (in ClC(Cl)Cl) is recorded as 443 nm.

Compound `Cc1cc(C)c(B(c2cc(-c3ccc(C(C)(C)C)cc3)sc2-c2sc(-c3ccc(C(C)(C)C)cc3)cc2P(=O)(c2ccccc2)c2ccccc2)c2c(C)cc(C)cc2C)c(C)c1` had an absorption maximum (in CO) of 396 nm.

Turning to `CCn1c2ccccc2c2cc(/C=C/c3cc(/C=C/c4ccc5c(c4)c4ccccc4n5CC)ncn3)ccc21`, the absorption maximum (in C1CCOC1) was 397 nm; the absorption maximum (in CCOC(C)=O) came to 395 nm; the absorption maximum (in CN(C)C=O) is 405 nm; the absorption maximum (in Cc1ccccc1) stood at 397 nm; the absorption maximum (in ClCCl) was 405 nm.

Consider `CCNCC`, for which the absorption maximum (in CCCCCC) was determined as 193 nm.

In turn, `CCCN1c2ccccc2Sc2cc(/C=C\c3cc(=O)oc4cc(C)ccc34)ccc21` gave an absorption maximum (in ClC(Cl)Cl) of 424 nm.

`c1ccc(N(c2ccccc2)c2c3ccccc3c(N(c3ccccc3)c3ccccc3)c3ccccc23)cc1` displayed an absorption maximum (in Cc1ccccc1) of 461 nm.

Take `CCC1=C(C)C2=Cc3c4ccccc4c4n3[B-](c3ccncc3)(Oc3ccccc3-4)[N+]2=C1C` (configuration not stated): the absorption maximum is on record as 621 nm (in CC#N), 625 nm (in CCCCCC), 629 nm (in Cc1ccccc1) and 627 nm (in ClCCl).

`F[B-]1(F)OC(c2cccc(Br)c2)=Cc2ccc3ccccc3[n+]21` registered an absorption maximum (in ClC(Cl)Cl) of 426 nm.
